biological target: T1, SUMO-activating enzyme subunit 2 (Human, UniProt Q9UBT2); assay: Enzyme Assay
T1 sequence (Q9UBT2 whole entry): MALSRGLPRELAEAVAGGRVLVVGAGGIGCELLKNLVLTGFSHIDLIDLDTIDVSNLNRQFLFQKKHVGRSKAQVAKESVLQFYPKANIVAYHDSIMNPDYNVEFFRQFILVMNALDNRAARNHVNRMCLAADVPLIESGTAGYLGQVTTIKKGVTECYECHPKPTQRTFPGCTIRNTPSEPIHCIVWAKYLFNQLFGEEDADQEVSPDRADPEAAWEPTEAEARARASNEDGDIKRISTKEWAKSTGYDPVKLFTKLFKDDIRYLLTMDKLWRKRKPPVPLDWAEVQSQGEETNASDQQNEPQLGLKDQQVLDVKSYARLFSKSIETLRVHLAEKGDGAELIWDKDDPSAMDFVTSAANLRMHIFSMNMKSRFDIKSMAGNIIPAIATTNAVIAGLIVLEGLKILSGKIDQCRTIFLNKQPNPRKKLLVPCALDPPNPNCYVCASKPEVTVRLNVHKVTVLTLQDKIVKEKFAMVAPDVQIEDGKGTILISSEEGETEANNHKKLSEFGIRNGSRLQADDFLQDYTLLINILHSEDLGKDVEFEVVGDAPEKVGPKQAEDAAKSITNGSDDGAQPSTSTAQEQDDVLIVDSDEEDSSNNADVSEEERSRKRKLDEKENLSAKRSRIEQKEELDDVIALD
Description: After incubation for 2 hours at 24° C., quantification of FRET is performed on the Pherostar (BMG Labtech). Percentage inhibition values at a single concentration or enzyme inhibition (IC50) values are determined from those curves. One skilled in the art will appreciate that the values generated either as percentage inhibition at a single concentration or IC50 values are subject to experimental variation.

| SMILES | IC50 [nM] |
| --- | --- |
| Cc1sc(C(=O)c2cncnc2N[C@@H]2C[C@H](COS(N)(=O)=O)[C@@H](O)C2)cc1[S@+]([O-])c1cccc(C(F)(F)F)c1 [US10780090, Compound I-69] | < 10 |
| NS(=O)(=O)OC[C@H]1C[C@@H](Nc2ncncc2C(=O)c2cc(Cc3cccc(Br)c3)c(Cl)s2)C[C@@H]1O [US10780090, Compound I-112] | < 10 |
| Cc1sc(C(=O)c2cncnc2N[C@@H]2C[C@H](COS(N)(=O)=O)[C@@H](O)C2)cc1[C@@H]1OCC(F)(F)c2ncccc21 [US10780090, Compound I-331] | 100 to 1000 |
| CC(C)(C)OC(=O)N1CCc2ccc(Cl)cc2[C@@H]1c1cc(C(=O)c2cncnc2N[C@@H]2C[C@H](COS(N)(=O)=O)[C@@H](O)C2)sc1Cl [US10780090, Compound I-336] | 100 to 1000 |
| CN(c1ncncc1C(=O)c1cc([C@@H]2OCCc3ccc(Cl)cc32)c(CO)s1)[C@@H]1C[C@H](COS(N)(=O)=O)[C@@H](O)C1 [US10780090, Compound I-366] | < 10 |

Continued, values first:

| IC50 [nM] | SMILES |
| --- | --- |
| < 10 | NS(=O)(=O)OC[C@H]1C[C@@H](Nc2ncncc2C(=O)c2cc(Cc3cccc(Br)n3)c(Cl)s2)C[C@@H]1O [US10780090, Compound I-46] |
| < 10 | Cc1sc(C(=O)c2cncnc2N[C@@H]2C[C@H](COS(N)(=O)=O)[C@@H](O)C2)cc1[C@@H]1OCC(F)(F)c2ccc(Cl)cc21 [US10780090, Compound I-288] |
| < 10 | CN1Cc2ccccc2[C@@H]1c1cc(C(=O)c2cncnc2N[C@@H]2C[C@H](COS(N)(=O)=O)[C@@H](O)C2)sc1Cl [US10780090, Compound I-304] |
| < 10 | CN1Cc2ccccc2[C@@H]1c1csc(C(=O)c2cncnc2N[C@@H]2C[C@H](COS(N)(=O)=O)[C@@H](O)C2)c1 [US10780090, Compound I-308] |
| < 10 | Cc1sc(C(=O)c2cncnc2N[C@@H]2C[C@H](COS(N)(=O)=O)[C@@H](O)C2)cc1[C@@H]1OCCc2ccc(C#N)cc21 [US10780090, Compound I-313] |
| < 10 | C[C@@]1(c2csc(C(=O)c3cncnc3N[C@@H]3C[C@H](COS(N)(=O)=O)[C@@H](O)C3)c2)NCCc2ccccc21 [US10780090, Compound I-318] |
| 100 to 1000 | CC(C)(C)OC(=O)N1CCc2ccc(Cl)cc2[C@@H]1c1csc(C(=O)c2cncnc2N[C@@H]2C[C@H](COS(N)(=O)=O)[C@@H](O)C2)c1 [US10780090, Compound I-334] |

Reference: BindingDB's records for patent US10780090 (Millennium Pharmaceuticals, Inc., 2020)
